Test results published in patent EP0622358A1, “Phenylglycinamides of 4-imidazolylmethyl-phenyl-acetic acids and their use against hypertension and atherosclerosis” (BAYER AG, priority 1993, dated 1994).

Test system: glatte Muskelzellen
Assay: Inhibition of proliferation of smooth muscle cells (3H-thymidine incorporation)
Assay type: cell-based, Ratten
Settings: half-maximal inhibition of thymidine incorporation induced by 10% FCS; rat aortic smooth muscle cells; read-out: IC₅₀
Method: Untersuchung zur Inhibition der Proliferation glatter Muskelzellen durch die erfindungsgemäßen Verbindungen
Zur Feststellung der antiproliferativen Wirkung der Verbindungen werden glatte Muskelzellen verwendet, die aus den Aorten von Ratten durch die Media-Explantat-Technik gewonnen werden [R. Ross, J. Cell. Biol. 50, 172, 1971]. Die Zellen werden in geeigneten Kulturschalen, in der Regel 96-Loch-Platten, ausgesät und für 2 - 3 Tage in Medium 199 mit 7,5% FCS und 7,5% NCS, 2 mM L-Glutamin und 15 mM HEPES, pH 7,4 in 5% CO₂ bei 37°C kultiviert. Danach werden die Zellen durch Serumentzug für 2 - 3 Tage synchronisiert und sodann mit Serum zum Wachstum angeregt. Gleichzeitig werden Testverbindungen zugesetzt. Nach 16 - 20 Stunden wird 1 µCi ³H-Thymidin zugefügt und nach weiteren 4 Stunden der Einbau dieser Substanz in die TCA-präzipitierbare DNA der Zellen bestimmt Zur Bestimmung der IC₅₀₋Werte wird die Wirkstoffkonzentration errechnet, die bei sequentieller Verdünnung des Wirkstoffes halbmaximale Hemmung der durch 10% FCS hervorgerufene Thymidininkorporation bewirkt. Tabelle B

| Structure (SMILES) | IC50 [nM] |
| --- | --- |
| CCCCc1nc(Cl)c(C=O)n1Cc1ccc(C(C(=O)NC(C(N)=O)c2ccccc2)C2CCCC2)cc1 (centres unmarked) [Beispiel 1, 2-{2-[4-(2-Butyl-4-chlor-5-formyl-imidazol-1-yl-methyl)phenyl]-2-cyclopentyl}-acetamido-2-phenyl-acetamid] | 1 |
| CCCCc1nc(Cl)c(CO)n1Cc1ccc(C(C(=O)NC(C(N)=O)c2ccccc2)C2CCCC2)cc1 (centres unmarked) [Beispiel 6, 2-{2-[4-(2-Butyl-4-chlor-5-hydroxymethyl-imidazol-1-yl-methyl)phenyl]-2-cyclopentyl}acetamido-2-phenyl-acetamid] | 0.2 |
